Marks after values point to notes of the source that are not given here.
Columns and labels:
[1] = system: arrhythmia of guinea pigs induced by Ouabain; assay: Arrhythmia of guinea pigs induced by Ouabain; assay type: in vivo; details: n=8
Description: Chose 40 male guinea pigs, weighing (288.8±38.3) g, randomly divided into six groups, anaesthetized with urethane 1.2 g/kg by abdominal injection. Ten minutes after administered drug or 0.5% CMC-Na, the guinea pigs were injected Ouabain into external jugular vein at 3 μg/min speed, recorded ECG respectively, measured the dose at appearance time of VP, VT, VF and CA, and performed t test.

[2] = system: myocardium injury model of rats induced by ISO; assay: Myocardium injury (myocardial ischemia) model of rats induced by ISO; assay type: in vivo, SD rats; details: drug 0.76 mg/kg, n=8; for Σ ST: rats, ISO s.c.
Description: SD rats were measured ECG by chest leads before experiment, abandoned those of abnormal or arrhythmia at T wave, ST sect. […] They were divided into four groups according to Table 4, eight rats in each group. As dose of Table 4, tested compounds or 0.5% CMC-Na solution with same volume were administered through duodenum for 30 minutes, rats were anaesthetized with aether. After ECG was recorded, Isoproterenol (ISO) was administered by subcutaneous injection from the back, recorded ECG again after 30 minutes. After specimen was intragastricly granted for 24 hours and 48 hours, every group was administered simples again and recorded ECG again in terms of the methods stated above. After 72 hours, bleeding from the ophthalmic venous plexus and separated blood serum through centrifugation. Killed the rats, scissor the tip of the heart to prepare 10% myocardial tissue homogenate with 4° C. physiological saline as standby.
Measured each rat's value of ST before first administering ISO. And after first, second and third subcutaneous injection for 30 minutes, calculated mv mean value of ΣST as guide line of myocardium injury and performed t test.
The changes of MDA LDH and CK in serum were measured with agent kits.
The changes of MDA, LDH and CK in serum and myocardial tissue homogenate were measured with agent kits.

[3] = system: cerebral ischemia-reperfusion injury of mice; assay: Memory step-through test after cerebral ischemia-reperfusion injury; assay type: in vivo, NIH mice; details: 4.5 mg/kg intragastric once a day for 10 days, n=10
Description: After weighed, NIH mice were anaesthetized with Penbotarbital 60 mg/kg, then performed operation. Fixed at supine position, the skin in the middle of the deck was dissected about 7 mm. Separated common carotid artery of two sides of neck, surrounded with the thread of No “0”. Common carotid artery of two sides was chipped with artery clip for 2 minutes to induce cerebral ischemia. In the end of ischemia treatment, artery clip was loosed and blood perfusion was restored, rest for five minutes, repeated twice as that. After blocking blood flow of carotid, sutured incision. Recorded trail bloodletting, bloodletting quantity was no more than 10% of total blood quantity. After operation, […] were administered with proper physiological saline through intraperitoneal injection in order to supple capacity of blood. After pseudo operation group was anaesthetized, carotid of two sides was separated but blood flow was not blocked, without being bloodletting too.
In experiment appearance of body temperature lowering and righting reflex disappearing was as positive guide-line of ischemia, discarding those without typical guide line of ischemia. In the procedure of ischemia or after operation, some of animals would be dead. […] According to the dose of Table 7, animals were administered with medicine by intragastric intubation once a day, and continue administered drug for 10 days. After 10 days, memory test was performed.

[4] = system: osteoporosis model of rats induced by Retinoic acid; assay: Osteoporosis model of rats induced by Retinoic acid; assay type: in vivo, SD rats; details: Retinoic acid 70 mg/kg, specimen orally 30 days (dose not given), right thighbone, n=8
From the text: After continuously administering specimen for 30 days, killed rats and took right thighbone of rat.
Took same part tissue of right thighbone, routinely decalcified, enveloped with olefin, and dyed with HE. Observed with ordinary optics microscope, import all imagines into computer with A/D conversion of pickup camera, via dealing with image analysis software obtained index of guide line as follows: relative bone volume, indicating percentage that bone trabecula accounted for medullary cavity, 1.25×10×4 times; average width of bone trabecula, 1.25×10×10 times; amount of cell per area in bone trabecula, gathering same area image (640×480) of bone trabecula with image analysis software, calculating amount of bone cell in corresponding area, 1.25×10×40 times; Average length of bone cell lacuna, 1.25×10×40; Average width of bone cell lacuna, 1.25×10×40. The above five indexes of static state guide-line were all observed for ten eyeshots, calculating their average value.

[5] = system: acute renal failure of mice induced by endotoxin; assay: Acute renal failure model induced by endotoxin; assay type: in vivo, NIH mice; details: drug 10 mg/kg i.p., endotoxin 0.06 g/kg, after five hours, n=10; for GSH-Px: mice kidney homogenate; for BUN / Cr: mice serum
Description: After five hours, blood of the mice was collected by removing eyes, assayed Blood Urea Nitrogen (BUN) and Creatinine (Cr) concentration of serum. One kidney of each […] was taken out and made 100 mL/L homogenate, assayed activity of Glutathione Peroxidase (GSH-Px) enzyme.

[6] = system: arrhythmia of rats induced by Aconitine; assay: Arrhythmia of rats induced by Aconitine; assay type: in vivo, SD rats
Description: Male SD rats, weighing (218.3±20.0) g, were anaesthetized with urethane 1.2 g/kg body weight by abdominal injection, continuously monitored by II lead electrocardiogram (ECG) by MS302 Biological Signal Record and Analysis System. After ten minutes of being administered drug or 0.5% CMC-Na through sublingual vein, rats were injected with Aconitine in external jugular vein at 2.5 μg/min speed, recorded the dose at appearance time of ventricular premature beat (VP), ventricular tachycardia (VT), ventricular fibrillation (VF) and cardiac arrest (CA), respectively. And t test was performed. […] The effect of compounds Ca Do E at 0.5 mg/kg dose were remarkably better than that of Prasterone and Arniodarone.

[7] = system: thymus and spleen of mice; assay: Indexes of thymus and spleen of mice injected with cyclophosphamide; assay type: in vivo, NIH mice; details: cyclophosphamide 60 mg/kg i.p., drug 10 mg/kg intragastric for 30 days, n=10
Description: Chose 90 healthy NIH mice, weighing (18˜22)g, equal amount of male and female. Every mouse was injected with cyclophos phamide (60 mg/kg, intraperitoneally). […] Administered specimen through intragastric intubation in terms of the dose in Table 8. Continuously administered orally specimen for 30 days, all mice fasted on the 30th day, but were supplied with water. On the 31th day, mice of every group were killed. Weighed their body, thymus and spleen, calculated index of thymus and spleen, compared the difference among each group.

[8] = drug 2.5 mg/kg 10 min before Ouabain 3 μg/min
[9] = myocardial tissue homogenate of rats with ISO myocardium injury
[10] = serum of rats with ISO myocardium injury, after 72 hours
[11] = rats, drug 0.5 mg/kg sublingual vein 10 min before Aconitine 2.5 μg/min, n=10
[12] = drug 4.5 mg/kg 10 min before Ouabain 3 μg/min

Compound | Activity of CK [2, 9] | MDA [2, 9] | Σ ST ([2]; 30 min) | Σ ST ([2]; 24 h) | Σ ST ([2]; 48 h) | Σ ST ([2]; 72 h) | Activity of CK [2, 10] | Activity of LDH [2, 10] | MDA [2, 10] | Latency of dark cabin, Memory [3] | Latency of dark cabin, Study [3] | Number of error [3] | Amount of cell per area in bone trabecula [4] | Average width of bone trabecula [4] | GSH-Px [5] | BUN [5] | Cr [5] | Dose of Aconitine required to induce CA ([6]; {}) | Dose of Aconitine required to induce VF ([6]; {}) | Dose of Aconitine required to induce VP ([6]; {}) | other results
propanediol-disulphonic acid-(5-androsten-17-one-3β-ol)-diester [Compound H] | 230.15 ± 53.46 U/L | 105.52 ± 14.64 nmol/g | 0.53 ± 0.11 mv | 0.50 ± 0.10 mv | 0.52 ± 0.04 mv | 0.51 ± 0.12 mv | 261.24 ± 24.27 U/L | 253.24 ± 31.55 U/L | 21.17 ± 3.36 nmol/mL | 56.0 ± 17.2 s | 26.2 ± 15.2 s | 3.0 ± 1.5 n | 35.69 ± 3.70 | 60.84 ± 4.81 μm | 35.6 ± 10.7 nU · L^−1 | 366.0 ± 30.2*** 10 mg · L^−1 | 35.78 ± 7.26*** 10 mg · L^−1 | – | – | – | Dose of Oua at appearance of CA [1, 8]: 0.2232 ± 0.0307 mg/kg; Dose of Oua at appearance of VF [1, 8]: 0.1981 ± 0.0415 mg/kg; Dose of Oua at appearance of VP [1, 8]: 0.116 ± 0.037 mg/kg; Dose of Oua at appearance of VT [1, 8]: 0.1402 ± 0.0356 mg/kg
CC12CCC3C(CC=C4CC(OC(=O)CCC(=O)OC5CCC6(C)C(=CCC7C8CCC(=O)C8(C)CCC76)C5)CCC43C)C1CCC2=O (stereo not drawn) [Compound D, succinic acid-(5-androsten-17-one-3β-ol)-diester] | 270.41 ± 34.31 U/L | 78.43 ± 7.51 nmol/g | 0.42 ± 0.20 mv | 0.47 ± 0.13 mv | 0.42 ± 0.08 mv | 0.40 ± 0.10 mv | 229.27 ± 31.32 U/L | 218.55 ± 37.35 U/L | 18.15 ± 4.52 nmol/mL | 67.4 ± 19.7 s | 37.3 ± 15.1 s | 1.2 ± 1.0 n | 20.70 ± 5.27 | 70.76 ± 8.56 μm | 38.4 ± 15.0 nU · L^−1 | 295.5 ± 36.0*** 10 mg · L^−1 | 29.31 ± 7.94*** 10 mg · L^−1 | 0.204 ± 0.028 mg/kg | 0.1864 ± 0.0302 mg/kg | 0.1224 ± 0.0205 mg/kg | Dose of Aconitine required to induce VT ([6]; {}): 0.1378 ± 0.0244 mg/kg; Activity of LDH [2, 9]: 292.27 ± 29.44 U/L; Relative bone volume [4]: 41.55 ± 4.38 %; Index of spleen [7]: 103.47 ± 13.40 mg/10 g body weight; Index of thymus [7]: 25.59 ± 3.70 mg/10 g body weight
C=C1/C(=C\C=C2/CCC[C@]3(C)[C@@H]([C@H](C)CCCC(C)(C)O)CC[C@@H]23)C[C@@H](O)C[C@@H]1O [Rocaltrol, reference compound] | – | – | – | – | – | – | – | – | – | – | – | – | 19.27 ± 3.89 | 67.16 ± 13.11 μm | – | – | – | – | – | – | Relative bone volume [4]: 36.72 ± 7.82 %
C[C@]12CC[C@H](OC(=O)CC(=O)O[C@H]3CC[C@@]4(C)C(=CC[C@@H]5[C@@H]4CC[C@]4(C)C(=O)CC[C@@H]54)C3)CC1=CC[C@@H]1[C@@H]2CC[C@]2(C)C(=O)CC[C@@H]12 [Compound C, malonic acid-(5-androsten-17-one-3β-ol)-diester] | 186.55 ± 26.25 U/L | 121.67 ± 15.24 nmol/g | 0.64 ± 0.21 mv | 0.52 ± 0.11 mv | 0.50 ± 0.14 mv | 0.52 ± 0.12 mv | 262.50 ± 35.41 U/L | 270.13 ± 27.46 U/L | 28.29 ± 6.56 nmol/mL | 58.1 ± 16.2 s | 24.4 ± 17.3 s | 2.5 ± 1.5 n | 19.50 ± 5.54 | 72.69 ± 10.38 μm | 29.8 ± 11.6 nU · L^−1 | 387.0 ± 40.2*** 10 mg · L^−1 | – | – | – | – | Dose of Aconitine required to induce CA [6, 11]: 0.1865 ± 0.0317 mg/kg; Dose of Aconitine required to induce VF [6, 11]: 0.1528 ± 0.0393 mg/kg; Dose of Aconitine required to induce VP [6, 11]: 0.098 ± 0.0291 mg/kg; Dose of Aconitine required to induce VT [6, 11]: 0.1189 ± 0.0353 mg/kg; Activity of LDH [2, 9]: 201.33 ± 25.24 U/L
C[C@]12CC[C@H](O)CC1=CC[C@@H]1[C@@H]2CC[C@]2(C)C(=O)CC[C@@H]12 [Parsterone, Prasterone, reference compound] | – | – | – | – | – | – | – | – | – | – | – | – | – | – | – | – | – | 0.1645 ± 0.0271 mg/kg | 0.1327 ± 0.0244 mg/kg | 0.0935 ± 0.019 mg/kg | Dose of Oua at appearance of CA [1, 12]: 0.1955 ± 0.033 mg/kg; Dose of Oua at appearance of VF [1, 12]: 0.1654 ± 0.0264 mg/kg; Dose of Oua at appearance of VP [1, 12]: 0.0893 ± 0.0155 mg/kg; Dose of Oua at appearance of VT [1, 12]: 0.1316 ± 0.0246 mg/kg; Dose of Aconitine required to induce VT ([6]; {}): 0.11 ± 0.0161 mg/kg

Reference: patent US20040171594A1, “Use of bis-acid(5-androsten-17-one-3beta-hydroxyl)diester for manufacture pharmaceuticals” (priority 2001, published 2004)
